For this assay, the target named is truncated PI3Kα (p110α/iSH2 p85α), PI3KA_Act (Homo sapiens (Human), UniProt P42336). Briefly: PI3Kα biochemical kinase assay, fluorescence polarization format (PI3KA_Act). The settings on record: 0.5 nM p110α/iSH2 p85, 1 mM ATP, 30 μM PIP2, 15-min preincubation; Morrison equation fit; read-out: PI3KA_Act Ki. How it is done:
Enzyme Production for Biochemical Assay: p110α-iSH2 p85α Complex (Full Length p110α and p85α iSH2)(“PI3KA Act”)
Gene encoding p110α subunit was subcloned into polyhedrine promoter while gene encoding p85α niSH2 domains was subcloned into p10 promoter. […] Recombinant baculovirus was generated using Bac-to-Bac protocol (Life Technologies, Carlsbad, Calif.). Large scale expression was conducted in Sf21 (Life Technologies, Carlsbad, Calif.) cells at a multiplicity of infection (“MOI”)=1 for 48 hours. Cells were lyzed in 50 mM Tris pH 8.0, 250 mM NaCl, 5% glycerol, 0.25 mM TCEP, and 20 mM imidazole. The p110α-niSH2 p85α complex was purified from clarified supernatant using Immobilized Metalo Affinity Chromatography (“IMAC”). The protein was eluted from the column using 50 mM Tris pH 8.0, 200 mM NaCl, 0.25 mM TCEP, and 200 mM imidazole. Following elution p110α-niSH2 p85α complex was dialyzed against 4 liters of 50 mM Tris pH 8.0, 200 mM NaCl, 0.25 mM TCEP, and 40 mM imidazole in the presence of PreScission Protease (1:70 molar ratio of Protease to Protein) and TEV protease (1:40 molar ratio protease to protein) for 16 hours at 4° C. The protein was further purified using reverse IMAC to remove cleaved histidine tag and contaminants captured during initial IMAC purification. The mixture of p110α-iSH2 p85α complex and cleaved nSH2 was recovered in reverse IMAC 40 mM imidazole flow through and 60 mM imidazole wash fractions. Those fractions were pulled together and loaded on Superdex 200 26/60 SEC column equilibrated in 25 mM Tris, pH 8.0, 100 mM NaCl, 2% glycerol, and 2 mM TCEP.
The enzymatic reactions were conducted in 50 μL volumes in 96-well plates. […] The reactions were incubated for 30 min at room temperature, stopped with EDTA pH 8 (10 mM final concentration). […] The plate was shaken for 30 minutes and fluorescence polarization values were measured on an LJL Analyst HT plate reader (Molecular Devices, Sunnyvale, Calif.).
For orientation: Polarisation of emitted light reports the rotation of a fluorescent probe.

Structures are written as SMILES.

Chain of truncated PI3Kα (p110α/iSH2 p85α), PI3KA_Act (P42336 whole entry, the tested form may be a part): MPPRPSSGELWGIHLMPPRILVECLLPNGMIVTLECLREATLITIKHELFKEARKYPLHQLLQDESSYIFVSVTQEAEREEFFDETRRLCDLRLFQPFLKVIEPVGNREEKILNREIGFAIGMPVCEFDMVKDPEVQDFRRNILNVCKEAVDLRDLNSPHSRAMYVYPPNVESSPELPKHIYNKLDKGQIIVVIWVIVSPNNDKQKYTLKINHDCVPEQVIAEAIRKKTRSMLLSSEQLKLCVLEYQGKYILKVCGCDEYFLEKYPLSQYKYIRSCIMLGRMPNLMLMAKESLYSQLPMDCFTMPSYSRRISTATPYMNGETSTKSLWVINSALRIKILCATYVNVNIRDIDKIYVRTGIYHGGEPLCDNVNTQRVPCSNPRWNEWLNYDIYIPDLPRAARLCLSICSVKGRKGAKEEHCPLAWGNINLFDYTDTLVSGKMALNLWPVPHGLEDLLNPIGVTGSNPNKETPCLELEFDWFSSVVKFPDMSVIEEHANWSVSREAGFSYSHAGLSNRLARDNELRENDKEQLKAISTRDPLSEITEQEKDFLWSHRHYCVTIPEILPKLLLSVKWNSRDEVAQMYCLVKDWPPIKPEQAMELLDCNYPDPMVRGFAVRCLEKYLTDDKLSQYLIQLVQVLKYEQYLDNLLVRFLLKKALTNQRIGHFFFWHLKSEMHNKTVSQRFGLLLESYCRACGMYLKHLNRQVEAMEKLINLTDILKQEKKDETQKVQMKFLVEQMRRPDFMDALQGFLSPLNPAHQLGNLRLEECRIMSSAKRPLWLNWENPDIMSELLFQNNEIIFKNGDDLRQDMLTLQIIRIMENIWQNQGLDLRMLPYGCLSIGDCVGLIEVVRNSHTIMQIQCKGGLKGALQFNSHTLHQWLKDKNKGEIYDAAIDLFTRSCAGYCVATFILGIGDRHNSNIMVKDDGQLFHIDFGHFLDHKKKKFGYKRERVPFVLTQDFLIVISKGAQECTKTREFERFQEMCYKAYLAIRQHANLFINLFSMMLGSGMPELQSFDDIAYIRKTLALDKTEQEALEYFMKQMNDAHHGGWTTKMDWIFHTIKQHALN

The Ki is the dissociation constant of the complex between target and ligand, obtained from inhibition or displacement. In the case of `CCOC(=O)N1CC[C@](CO)(Nc2cc(-c3cnc(N)nc3)nc(N3CCOC[C@@H]3C)n2)C1` [Example 64, ethyl (3S)-3-({2′-amino-2-[(3S)-3-methylmorpholin-4-yl]-4,5′-bipyrimidin-6-yl}amino)-3-(hydroxymethyl)pyrrolidine-1-carboxylate], the Ki is under 0.018 nM.
As for `COC(=O)N1CC[C@](CO)(Nc2cc(-c3cnc(N)nc3)nc(N3CCOC[C@@H]3C)n2)C1` [Example 65, methyl (3S)-3-({2′-amino-2-[(3S)-3-methylmorpholin-4-yl]-4,5′-bipyrimidin-6-yl}amino)-3-(hydroxymethyl)pyrrolidine-1-carboxylate], the figure is under 0.018 nM; as for `Nc1ncc(-c2cc(N[C@@]3(CO)CCN(CC(F)F)C3)nc(N3CCOCC3)n2)cn1` [Example 67, [(3S)-3-{[2′-amino-2-(morpholin-4-yl)-4,5′-bipyrimidin-6-yl]amino}-1-(2,2-difluoroethyl)pyrrolidin-3-yl]methanol], 1.52 nM.
The value for `CCOC(=O)N1CC[C@](CO)(Nc2nc(N3CCOCC3)nc(-c3cnc(N)nc3)c2F)C1` [Example 69, ethyl (3S)-3-{[2′-amino-5-fluoro-2-(morpholin-4-yl)-4,5′-bipyrimidin-6-yl]amino}-3-(hydroxymethyl)pyrrolidine-1-carboxylate] was 0.15 nM; that for `CC(C)OC(=O)N1CC[C@](CO)(Nc2nc(N3CCOCC3)nc(-c3cnc(N)nc3)c2F)C1` [Example 70, propan-2-yl (3S)-3-{[2′-amino-5-fluoro-2-(morpholin-4-yl)-4,5′-bipyrimidin-6-yl]amino}-3-(hydroxymethyl)pyrrolidine-1-carboxylate] was 0.031 nM.
Regarding `Nc1ncc(-c2cc(N[C@@]3(CO)CCN(CC4CC4)C3)nc(N3CCOCC3)n2)cn1` [Example 71, [(3S)-3-{[2′-amino-2-(morpholin-4-yl)-4,5′-bipyrimidin-6-yl]amino}-1-(cyclopropylmethyl)pyrrolidin-3-yl]methanol], the Ki was found to be 9.47 nM.
As to `Cn1ccnc1C(=O)N1CC[C@](CO)(Nc2cc(-c3cnc(N)nc3)nc(N3CCOCC3)n2)C1` [Example 73, [(3S)-3-{[2′-amino-2-(morpholin-4-yl)-4,5′-bipyrimidin-6-yl]amino}-3-(hydroxymethyl)pyrrolidin-1-yl](1-methyl-1H-imidazol-2-yl)methanone], the inhibition constant (Ki) is 0.746 nM.
Take `CN1CCC(N2CC[C@](CO)(Nc3cc(-c4cnc(N)nc4)nc(N4CCOCC4)n3)C2)C1=O` (stereo partly drawn) [Example 76, (3S)-3-{[2′-amino-2-(morpholin-4-yl)-4,5′-bipyrimidin-6-yl]amino}-3-(hydroxymethyl)-1′-methyl-1,3′-bipyrrolidin-2′-one]: the Ki was determined as 1.82 nM.
As for `CCCOC(=O)N1CC[C@](CO)(Nc2cc(-c3cnc(N)nc3)nc(N3CCOCC3)n2)C1` [Example 77, propyl (3S)-3-{[2′-amino-2-(morpholin-4-yl)-4,5′-bipyrimidin-6-yl]amino}-3-(hydroxymethyl)pyrrolidine-1-carboxylate], the figure is under 0.018 nM; as for `Nc1ncc(-c2cc(N[C@@]3(CO)CCN(C(=O)N4CCCC4)C3)nc(N3CCOCC3)n2)cn1` [Example 78, [(3S)-3-{[2′-amino-2-(morpholin-4-yl)-4,5′-bipyrimidin-6-yl]amino}-3-(hydroxymethyl)pyrrolidin-1-yl](pyrrolidin-1-yl)methanone], 0.267 nM.
As for `Nc1ncc(-c2cc(N[C@@]3(CO)CCN(C(=O)OCC(F)F)C3)nc(N3CCOCC3)n2)cn1` [Example 79, 2,2-difluoroethyl (3S)-3-{[2′-amino-2-(morpholin-4-yl)-4,5′-bipyrimidin-6-yl]amino}-3-(hydroxymethyl)pyrrolidine-1-carboxylate], the figure is 0.021 nM; as for `Nc1ncc(-c2cc(N[C@@]3(CO)CCN(C4CCNC4=O)C3)nc(N3CCOCC3)n2)cn1` (stereo partly drawn) [Example 80, (3S)-3-{[2′-amino-2-(morpholin-4-yl)-4,5′-bipyrimidin-6-yl]amino}-3-(hydroxymethyl)-1,3′-bipyrrolidin-2′-one], 1.94 nM.
The value for `Cn1cc(C(=O)N2CC[C@](CO)(Nc3cc(-c4cnc(N)nc4)nc(N4CCOCC4)n3)C2)cn1` [Example 81, [(3S)-3-{[2′-amino-2-(morpholin-4-yl)-4,5′-bipyrimidin-6-yl]amino}-3-(hydroxymethyl)pyrrolidin-1-yl](1-methyl-1H-pyrazol-4-yl)methanone] was 0.31 nM; that for `CCOC(=O)N1CC[C@](CO)(Nc2nc(-c3cnc(N)nc3)nc(N3CCOCC3)n2)C1` [Example 82, ethyl (3S)-3-{[4-(2-aminopyrimidin-5-yl)-6-(morpholin-4-yl)-1,3,5-triazin-2-yl]amino}-3-(hydroxymethyl)pyrrolidine-1-carboxylate] was 0.027 nM; that for `CC(C)OC(=O)N1CC[C@](CO)(Nc2nc(-c3cnc(N)nc3)nc(N3CCOCC3)n2)C1` [Example 83, propan-2-yl (3S)-3-{[4-(2-aminopyrimidin-5-yl)-6-(morpholin-4-yl)-1,3,5-triazin-2-yl]amino}-3-(hydroxymethyl)pyrrolidine-1-carboxylate] was 0.215 nM.
For `CN1CCCC(N2CC[C@](CO)(Nc3cc(-c4cnc(N)nc4)nc(N4CCOCC4)n3)C2)C1=O` (stereo partly drawn) [Example 84, 3-[(3S)-3-{[2′-amino-2-(morpholin-4-yl)-4,5′-bipyrimidin-6-yl]amino}-3-(hydroxymethyl)pyrrolidin-1-yl]-1-methylpiperidin-2-one], the Ki stood at 0.445 nM.
`Nc1ncc(-c2cc(N[C@@]3(CO)CCN(c4ccccn4)C3)nc(N3CCOCC3)n2)cn1` [Example 85, [(3S)-3-{[2′-amino-2-(morpholin-4-yl)-4,5′-bipyrimidin-6-yl]amino}-1-(pyridin-2-yl)pyrrolidin-3-yl]methanol]: the Ki was 0.067 nM.
The value for `Nc1ncc(-c2cc(N[C@@]3(CO)CCN(C(=O)c4ncc[nH]4)C3)nc(N3CCOCC3)n2)cn1` [Example 86, [(3S)-3-{[2′-amino-2-(morpholin-4-yl)-4,5′-bipyrimidin-6-yl]amino}-3-(hydroxymethyl)pyrrolidin-1-yl](1H-imidazol-2-yl)methanone] was 0.026 nM; that for `Nc1ncc(-c2cc(N[C@@]3(CO)CCN(C(=O)c4ncccn4)C3)nc(N3CCOCC3)n2)cn1` [Example 87, [(3S)-3-{[2′-amino-2-(morpholin-4-yl)-4,5′-bipyrimidin-6-yl]amino}-3-(hydroxymethyl)pyrrolidin-1-yl](pyrimidin-2-yl)methanone] was 0.085 nM.
The value for `Nc1ncc(-c2cc(N[C@@]3(CO)CCN(C4CCCNC4=O)C3)nc(N3CCOCC3)n2)cn1` (stereo partly drawn) [Example 88, 3-[(3S)-3-{[2′-amino-2-(morpholin-4-yl)-4,5′-bipyrimidin-6-yl]amino}-3-(hydroxymethyl)pyrrolidin-1-yl]piperidin-2-one] was 0.682 nM; that for `Nc1ncc(-c2cc(N[C@@]3(CO)CCN(C(=O)N4CCC4)C3)nc(N3CCOCC3)n2)cn1` [Example 89, [(3S)-3-{[2′-amino-2-(morpholin-4-yl)-4,5′-bipyrimidin-6-yl]amino}-3-(hydroxymethyl)pyrrolidin-1-yl](azetidin-1-yl)methanone] was under 0.018 nM.
`Nc1ncc(-c2cc(N[C@@]3(CO)CCN(C(=O)c4cn[nH]c4)C3)nc(N3CCOCC3)n2)cn1` [Example 90, [(3S)-3-{[2′-amino-2-(morpholin-4-yl)-4,5′-bipyrimidin-6-yl]amino}-3-(hydroxymethyl)pyrrolidin-1-yl](1H-pyrazol-4-yl)methanone]: the Ki was under 0.018 nM.
The value for `Nc1ncc(-c2cc(N[C@@]3(CO)CCN(C(=O)C4CC4)C3)nc(N3CCOCC3)n2)cn1` [Example 92, [(3S)-3-{[2′-amino-2-(morpholin-4-yl)-4,5′-bipyrimidin-6-yl]amino}-3-(hydroxymethyl)pyrrolidin-1-yl](cyclopropyl)methanone] was under 0.018 nM.
As for `Nc1ncc(-c2cc(N[C@@]3(CO)CCN(C(=O)OC4CC4)C3)nc(N3CCOCC3)n2)cn1` [Example 93, cyclopropyl (3S)-3-{[2′-amino-2-(morpholin-4-yl)-4,5′-bipyrimidin-6-yl]amino}-3-(hydroxymethyl)pyrrolidine-1-carboxylate], the Ki was under 0.018 nM.
As for `CC[C@@]1(Nc2cc(-c3cnc(N)nc3)nc(N3CCOCC3)n2)CCN(C(=O)C2(F)CC2)C1` [Example 94, [(3R)-3-{[2′-amino-2-(morpholin-4-yl)-4,5′-bipyrimidin-6-yl]amino}-3-ethylpyrrolidin-1-yl](1-fluorocyclopropyl)methanone], the figure is 0.631 nM; as for `CCOC(=O)N1CC[C@@](CC)(Nc2cc(-c3cnc(N)nc3)nc(N3CCOCC3)n2)C1` [Example 95, ethyl (3R)-3-{[2′-amino-2-(morpholin-4-yl)-4,5′-bipyrimidin-6-yl]amino}-3-ethylpyrrolidine-1-carboxylate], 0.412 nM.
